Values after ≈ are worked out from the molar mass of the structure shown. Active and inactive are the calls of the source. No cut-off for these calls is given here.
Columns and labels:
Acinetobacter baumannii [1] = assay: Antibacterial activity against Acinetobacter baumannii ATCC19606 assessed as bacterial growth inhibition incubated for 18 to 20 hrs by microbroth dilution method; type: functional; conditions: time 18-20 hrs
[2] = Cytotoxicity against GFP fused human MT4 cells cultured under serum free condition for 24 hrs by CellTiter-Glo assay; type: toxicity, cell-based; conditions: GFP fused MT4 cells
[3] = Inhibition of wildtype Acinetobacter baumannii MsbA preincubated for 30 mins followed by ATP addition and measured after 1 hrs by Transcreener ADP2 F1 assay
Acinetobacter baumannii [4] = assay: Antibacterial activity against Acinetobacter baumannii ATCC19606 incubated for 18 to 20 hrs in presence of 10% human serum by microbroth dilution method; type: functional; conditions: time 18-20 hrs
Acinetobacter baumannii [5] = assay: Selectivity ratio of MIC95 for antibacterial activity against Acinetobacter baumannii ATCC19606 in the presence of 10% human serum to MIC95 for antibacterial activity against Acinetobacter baumannii ATCC19606; type: functional
Acinetobacter baumannii [6] = assay: Antibacterial activity against Acinetobacter baumannii CLB21655 incubated for 18 to 20 hrs in presence of 10% mouse serum by microbroth dilution method; type: functional; conditions: time 18-20 hrs
Acinetobacter baumannii [7] = assay: Antibacterial activity against Acinetobacter baumannii CLB21655 assessed as bacterial growth inhibition incubated for 18 to 20 hrs by microbroth dilution method; type: functional; conditions: time 18-20 hrs
Acinetobacter baumannii [8] = assay: Antibacterial activity against Acinetobacter baumannii CLB21655 incubated for 18 to 20 hrs in presence of 50% mouse serum by microbroth dilution method; type: functional; conditions: time 18-20 hrs
Acinetobacter baumannii [9] = assay: Antibacterial activity against Acinetobacter baumannii CLB21655 incubated for 18 to 20 hrs in presence of 50% human serum by microbroth dilution method; type: functional; conditions: time 18-20 hrs
[10] = Lipophilicity, logD of compound at pH 7 by HPLC analysis; type: physicochemical; conditions: buffer
Acinetobacter baumannii [11] = assay: Antibacterial activity against Acinetobacter baumannii ATCC19606 incubated for 18 to 20 hrs in presence of 1% of human serum by microbroth dilution method; type: functional; conditions: time 18-20 hrs
Acinetobacter baumannii [12] = assay: Selectivity ratio of MIC95 for antibacterial activity against Acinetobacter baumannii ATCC19606 in the presence of 1% human serum to MIC95 for antibacterial activity against Acinetobacter baumannii ATCC19606; type: functional
Acinetobacter baumannii [13] = assay: Antibacterial activity against wild type Acinetobacter baumannii; type: functional
[14] = AUC (0 to infinity) in male C57BL/6 mouse at 300 mg/kg, sc administered once in a day and measured after 24 hrs by LC-MS/MS analysis; type: ADME, organism-based; conditions: male, C57BL/6, mouse, in vivo
[15] = AUC (0 to infinity) in male C57BL/6 mouse at 300 mg/kg, sc administered 3 times a day with 3 hrs interval and measured after 24 hrs by LC-MS/MS analysis; type: ADME, organism-based; conditions: male, C57BL/6, mouse, in vivo
[16] = Cmax in male C57BL/6 mouse at 300 mg/kg, sc administered once in a day and measured after 24 hrs by LC-MS/MS analysis; type: ADME, organism-based; conditions: in vivo
[17] = Cmax in male C57BL/6 mouse at 300 mg/kg, sc administered 3 times a day with 3 hrs interval and measured after 24 hrs by LC-MS/MS analysis; type: ADME, organism-based; conditions: in vivo

SMILES	MIC95 (Acinetobacter baumannii [1]) [µM]	EC50 at 24 h [2] [nM]	EC50 [3] [nM]	MIC95 (Acinetobacter baumannii [11]) [µM]	Selectivity ratio (Acinetobacter baumannii [12])	also measured
O=C(O)c1cc(CN2CC(Oc3ccc(NS(=O)(=O)c4ccc(-c5ccc(F)cc5)s4)c(C(=O)O)c3)C2)ccc1NS(=O)(=O)c1cnn(-c2ccc(Cl)cc2)c1	0.049 (≈ 0.0411 µg/mL)	37000	< 10			MIC95 (Acinetobacter baumannii [4]): 3.12 µM; Selectivity ratio (Acinetobacter baumannii [5]): 64
O=C(O)c1cc(CN2CC(Oc3ccc(NS(=O)(=O)N4CCOC(c5ccc(F)cc5)C4)c(C(=O)O)c3)C2)ccc1NS(=O)(=O)CCCc1ccc(F)cc1 (racemic)						MIC (Acinetobacter baumannii [6]): 6.25 µM; MIC (Acinetobacter baumannii [7]): 0.098 µM (≈ 0.0785 µg/mL); MIC (Acinetobacter baumannii [8]): > 100 µM; MIC (Acinetobacter baumannii [9]): 12.5 µM
O=C(O)c1cc(CNC2CN(Cc3ccc(NS(=O)(=O)c4cnn(-c5ccc(Cl)cc5)c4)c(C(=O)O)c3)C2)ccc1NS(=O)(=O)c1cnn(-c2ccc(Cl)cc2)c1	0.391 (≈ 0.333 µg/mL)	> 42000	887			MIC95 (Acinetobacter baumannii [4]): 3.12 µM; Selectivity ratio (Acinetobacter baumannii [5]): 8
O=C(O)c1cc(CN[C@H]2C[C@@H](NCc3ccc(NS(=O)(=O)c4cnn(-c5ccc(Cl)cc5)c4)c(C(=O)O)c3)C2)ccc1NS(=O)(=O)c1cnn(-c2ccc(Cl)cc2)c1	0.196 (≈ 0.17 µg/mL)	> 42000	1290			MIC95 (Acinetobacter baumannii [4]): 3.12 µM; Selectivity ratio (Acinetobacter baumannii [5]): 16
CCCCc1ccc(S(=O)(=O)Nc2ccc(NC(=O)Nc3ccc(NS(=O)(=O)c4ccc(CCCC)cc4)c(C(=O)O)c3)cc2C(=O)O)cc1	2.21 (≈ 1.6 µg/mL)					logD [10]: 2.3
CCCCc1ccc(S(=O)(=O)Nc2ccc(OCCCCOc3ccc(NS(=O)(=O)c4ccc(CCCC)cc4)c(C(=O)O)c3)cc2C(=O)O)cc1	0.049 (≈ 0.0369 µg/mL)	9800	5.4	12.5	255	
O=C(O)c1cc(CN[C@H]2C[C@@H](CNc3ccc(NS(=O)(=O)c4cnn(-c5ccc(Cl)cc5)c4)c(C(=O)O)c3)C2)ccc1NS(=O)(=O)c1cnn(-c2ccc(Cl)cc2)c1	0.024 (≈ 0.0208 µg/mL)	32700	2380	0.098		Activity (Acinetobacter baumannii [4]): inactive
O=C(O)c1cc(CN2CC(Oc3ccc(NS(=O)(=O)c4ccc(-c5ccc(F)cc5)s4)c(C(=O)O)c3)C2)ccc1NS(=O)(=O)CCc1ccc(Cl)cc1	0.024 (≈ 0.0192 µg/mL)	38700	5.7			MIC95 (Acinetobacter baumannii [4]): 3.12 µM; Selectivity ratio (Acinetobacter baumannii [5]): 130
O=C(O)c1cc(CN2CC(Oc3ccc(NS(=O)(=O)c4cnn(-c5ccc(F)cc5)c4)c(C(=O)O)c3)C2)ccc1NS(=O)(=O)CCCCCc1ccc(Cl)cc1						MIC (Acinetobacter baumannii [6]): 3.12 µM; MIC (Acinetobacter baumannii [7]): 0.024 µM (≈ 0.0198 µg/mL); MIC (Acinetobacter baumannii [8]): 25 µM; MIC (Acinetobacter baumannii [9]): 25 µM
C[C@@H]1[C@H](Oc2ccc(NS(=O)(=O)c3cnn(-c4ccc(Cl)cc4)c3)c(C(=O)O)c2)CN1Cc1ccc(NS(=O)(=O)c2cnn(-c3ccc(Cl)cc3)c2)c(C(=O)O)c1 (racemic)	0.049 (≈ 0.0418 µg/mL)	> 42000	82			MIC95 (Acinetobacter baumannii [4]): 6.25 µM; Selectivity ratio (Acinetobacter baumannii [5]): 128
O=C(CCCOc1ccc(NS(=O)(=O)c2cnn(-c3ccc(Cl)cc3)c2)c(C(=O)O)c1)Nc1ccc(NS(=O)(=O)c2cnn(-c3ccc(Cl)cc3)c2)c(C(=O)O)c1	0.062 (≈ 0.053 µg/mL)	22900	< 10	1.56	25	
Cc1c(S(=O)(=O)Nc2ccc(NC(=O)CCCOc3ccc(NS(=O)(=O)c4cnn(-c5ccc(Cl)cc5)c4C)c(C(=O)O)c3)cc2C(=O)O)cnn1-c1ccc(Cl)cc1	0.098 (≈ 0.0865 µg/mL)	900	< 10	1.56	16	
Cn1nc(-c2ccccc2)cc1S(=O)(=O)Nc1ccc(NC(=O)CCCOc2ccc(NS(=O)(=O)c3cc(-c4ccccc4)nn3C)c(C(=O)O)c2)cc1C(=O)O	0.024 (≈ 0.0195 µg/mL)	700	3.8	1.11	46	
O=C(O)c1cc(CN2CC(Oc3ccc(NS(=O)(=O)c4cnn(-c5ccc(F)cc5)c4)c(C(=O)O)c3)C2)ccc1NS(=O)(=O)CCCCc1ccc(Cl)cc1						MIC (Acinetobacter baumannii [6]): 3.12 µM; MIC (Acinetobacter baumannii [7]): 0.078 µM (≈ 0.0634 µg/mL); MIC (Acinetobacter baumannii [8]): 70.7 µM; MIC (Acinetobacter baumannii [9]): 29.7 µM
O=C(O)c1cc(CN2CC(Oc3ccc(NS(=O)(=O)N4CCOC(c5ccc(F)cc5)C4)c(C(=O)O)c3)C2)ccc1NS(=O)(=O)CCCCc1ccc(Cl)cc1 (single isomer, unassigned)						MIC (Acinetobacter baumannii [6]): 3.12 µM; MIC (Acinetobacter baumannii [7]): 0.049 µM (≈ 0.0407 µg/mL); MIC (Acinetobacter baumannii [8]): 50 µM; MIC (Acinetobacter baumannii [9]): 12.5 µM
O=C(Nc1sc2c(c1C(=O)O)CCCC2)c1ccc(Cl)cc1						MIC (Acinetobacter baumannii [13]): 60 µM (≈ 20.1 µg/mL)
O=C(O)c1cc(CN2CC(Oc3ccc(NS(=O)(=O)c4ccc(-c5ccc(F)cc5)cc4)c(C(=O)O)c3)C2)ccc1NS(=O)(=O)c1cnn(-c2ccc(F)cc2)c1	0.049 (≈ 0.04 µg/mL)	> 42000	17			MIC95 (Acinetobacter baumannii [4]): 3.12 µM; Selectivity ratio (Acinetobacter baumannii [5]): 64
O=C(CCCOc1ccc(NS(=O)(=O)c2ccc(Oc3ccc(Cl)cc3)nc2)c(C(=O)O)c1)Nc1ccc(NS(=O)(=O)c2ccc(Oc3ccc(Cl)cc3)nc2)c(C(=O)O)c1	0.012 (≈ 0.0109 µg/mL)	36300	29	3.12	260	
O=C(CCCOc1ccc(NS(=O)(=O)c2ccc(-c3ccccc3)s2)c(C(=O)O)c1)Nc1ccc(NS(=O)(=O)c2ccc(-c3ccccc3)s2)c(C(=O)O)c1	0.012 (≈ 0.00982 µg/mL)	> 42000	< 10	3.12	260	
O=C(CCCOc1ccc(NS(=O)(=O)c2ccc(-c3ccc(Cl)cc3)s2)c(C(=O)O)c1)Nc1ccc(NS(=O)(=O)c2ccc(-c3ccc(Cl)cc3)s2)c(C(=O)O)c1	0.012 (≈ 0.0106 µg/mL)	3400	< 10	2.21	184	
O=C(CCCOc1ccc(NS(=O)(=O)c2ccc(-c3ccc(C(F)(F)F)cc3)cc2)c(C(=O)O)c1)Nc1ccc(NS(=O)(=O)c2ccc(-c3ccc(C(F)(F)F)cc3)cc2)c(C(=O)O)c1	0.391 (≈ 0.368 µg/mL)	11200	< 10	3.12	8	AUC(0-inf) [14]: 885 µM·h; AUC(0-inf) [15]: 3780 µM·h; Cmax [16]: 370 µM; Cmax [17]: 543 µM
CCCCc1ccc(S(=O)(=O)Nc2ccc(NC(=O)CCC(=O)Nc3ccc(NS(=O)(=O)c4ccc(CCCC)cc4)c(C(=O)O)c3)cc2CO)cc1	6.25 (≈ 4.78 µg/mL)		1240	> 200	>32	
CCCCc1ccc(NS(=O)(=O)c2ccc(NC(=O)CCC(=O)Nc3ccc(NS(=O)(=O)c4ccc(CCCC)cc4)c(C(=O)O)c3)cc2C(=O)O)cc1	0.783 (≈ 0.61 µg/mL)		597	25	32	
CCCCc1ccc(S(=O)(=O)Nc2ccc(NC(=O)CCC(=O)Nc3ccc(N(C)S(=O)(=O)c4ccc(CCCC)cc4)c(C(=O)O)c3)cc2C(=O)O)cc1	1.11 (≈ 0.877 µg/mL)		456	50	45	
O=C(O)c1cc(CN2CC(COc3ccc(NS(=O)(=O)c4cnn(-c5ccc(Cl)cc5)c4)c(C(=O)O)c3)C2)ccc1NS(=O)(=O)c1cnn(-c2ccc(Cl)cc2)c1	0.196 (≈ 0.167 µg/mL)	> 42000	581			MIC95 (Acinetobacter baumannii [4]): 6.25 µM; Selectivity ratio (Acinetobacter baumannii [5]): 32

Source: ChEMBL document CHEMBL5584343, “Cerastecin Inhibition of the Lipooligosaccharide Transporter MsbA to Combat Acinetobacter baumannii: From Screening Impurity to In Vivo Efficacy” (J Med Chem, 2024)
